One series relates to Vero. Briefly: Cytotoxicity against african green monkey Vero cells. Format: cell-based. Particulars: chlorocebus sabaeus.
Another series concerns Plasmodium falciparum. Put plainly: Antiplasmodial activity against Plasmodium falciparum W2. In kind it is functional, organism-based.

Converted amounts (≈) assume the structure as drawn.

As for `Cc1c([C@H](C)[C@@H]2NC[C@@H](C)C[C@H]2O)ccc2c1C[C@H]1[C@H]2CCC2=CC(=O)CC[C@@]21C`, the Activity entry with Vero was “Non-toxic”.
`Cc1c([C@H](C)[C@@H]2NC[C@@H](C)C[C@H]2O)ccc2c1C[C@H]1[C@H]2CCC2=CC(=O)C=C[C@@]21C`: in the series with Plasmodium falciparum, the midpoint of inhibition, the IC50, lay at 3.6 µg/mL (≈ 8.88 µM). The Activity entry in the series with Vero is “Non-toxic”.
On to `Cc1c([C@H](C)[C@@H]2NC[C@@H](C)C[C@H]2O)ccc2c1C[C@H]1[C@H]2CC[C@H]2CC(=O)CC[C@@]21C` [DIHYDROVERATRAM-3-ONE], for which the Activity entry in the series with Vero is listed as “Non-toxic”.
The same measure, in the same setting: the value for `Cc1c([C@H](C)[C@@H]2NC[C@@H](C)C[C@H]2O)ccc2c1C[C@H]1[C@H]2CC=C2C[C@@H](O)CC[C@@]21C` [VERATRAMINE] was “Non-toxic”.

Values taken from ChEMBL document CHEMBL1159201, “Microbial biotransformation of veratramine” (J Nat Prod, 1998).
